In publication PMC7911516, “Investigation of the Factors Responsible for the Poor Oral Bioavailability of Acacetin in Rats: Physicochemical and Biopharmaceutical Aspects” (Pharmaceutics, 2021):

What was measured:
[1] = Distribution coefficients in octanol–water system; format: physicochemical; conditions: 25 °C
Description: Simulated gastric fluid (SGF) consisted of 0.2% (w/v) sodium chloride, 0.32% (w/v) pepsin, and 0.7% (v/v) HCl (final pH = 1.2). Simulated intestinal fluid (SIF) was prepared by dissolving 3 mM sodium taurocholate and 0.1% (w/v) pancreatin in phosphate buffer (final pH = 7.0). The solubility of acacetin was measured by adding excessive amounts of acacetin into glass vials containing 1.5 mL of water, pH 7.4 phosphate buffer, SGF, and SIF. The mixtures were allowed to reach equilibrium in a shaking incubator (FINEPCR, Gyeonggi-do, South Korea) at 500 rpm at 37 °C for 48 h. The samples were centrifuged at 16,000× g for 5 min, and the supernatant was passed through a 0.20-μm syringe filter to remove excess acacetin. Further, the concentration of acacetin in the filtrate was determined using the LC-MS/MS method. The distribution coefficients of acacetin in water (log P) and pH 7.4 phosphate buffer (log D7.4) were determined using an octanol–water system at 25 ± 0.5 °C. […] Finally, the acacetin concentrations in the octanol and water layers were determined using the LC-MS/MS method. The membrane permeability of acacetin and reference compounds (verapamil as a reference for high permeability and ranitidine as a reference for low permeability) was assessed by parallel artificial membrane permeability assay (PAMPA). […] The permeability was calculated using pION PAMPA Explorer ver. […]

[2] = Stability in phosphate buffers, plasma, RLM, SGF and SIF; format: physicochemical; conditions: for Initially spiked amount remaining after 24 h: 10 μM
Description: The stability of acacetin was determined in several matrices such as phosphate buffers (pH 1.0, 3.0, 5.0, 7.0, 9.0, 11.0, and 13.0), plasma, RLM, SGF, and SIF. The samples spiked with acacetin (10 μM) were incubated at 37 °C, and 120 μL aliquots of the samples were collected at 0, 15, 30, 60, 120, 180, 240, 360, 420, 600, and 1440 min. The collected samples were diluted with acetonitrile to obtain a proper concentration and analyzed by the LC-MS/MS method.

rat CYP2C = test: Disappearance in RLM with CYP isoform-selective inhibitor SPZ; format: in vitro ADME; conditions: acacetin 20 μM, 10-μM SPZ, NADPH, 5 min
Description: To investigate hepatic phase I enzymes- and UGT-dependent metabolism of acacetin, the disappearance rate of acacetin at concentrations of 1–200 µM in RLM was measured in the presence of both NADPH and UDPGA. The substrate (acacetin) concentration ((S); µM) versus the initial metabolic rate (V; nmol/min/mg protein) profiles were interpreted based on Michaelis–Menten kinetics, and relevant parameters were estimated via nonlinear regression analysis (GraphPad Prism ver. 5.01; GraphPad Software, San Diego, CA, USA) using the following Michaelis–Menten equation: V = Vmax× [S]/Km× [S] where Km and Vmax are the Michaelis–Menten constant and maximal metabolic rate, respectively. The unbound intrinsic metabolic clearance (CLint) was calculated as Vmax/(Km × fuMIC). Furthermore, the disappearance of acacetin (20 μM) in the absence or presence of specific CYP isoform-selective inhibitors in RLM was determined to study the hepatic CYP-mediated metabolism of acacetin. Microsomal incubation mixtures (total volume of 200 μL) were prepared as follows: RLM (0.5 mg/mL microsomal protein), 1 mM NADPH, 10 mM MgCl2, 50 mM potassium phosphate buffer, acacetin, with or without CYP isoform-selective inhibitors (10 μM NF for rat CYP1A, 10-μM SPZ for rat CYP2C, 10-μM QND for rat CYP2D, and 10-μM KCZ for rat CYP3A). […]

logD ([1]; n-octanol/pH 7.4 phosphate buffer, pH 7.4, n-octanol/pH 7.4 phosphate buffer, read-out: Log D7.4): > 3 | logP ([1]; octanol/water, n-octanol/water): > 3 | Stability (stable = more than 85% remaining) ([2]; SGF and SIF): unstable | Initially spiked amount remaining after 24 h ([2]; SGF and SIF, 37 °C): 27.5–62.0% | Stability (stable = more than 85% remaining) ([2]; acidic and neutral conditions (pH 1–7)): unstable | Stability (stable = more than 85% remaining) ([2]; basic conditions (pH 9, 11, 13)): stable | Remaining after 24 h ([2]; pH 7 phosphate buffer and simulated GI fluids (as worded in abstract)): 27.5–62.0% | Initially spiked amount remaining after 24 h ([2]; phosphate buffers, pH range 1–7, 37 °C): 16.1–35.9% | Stability (stable = more than 85% remaining) ([2]; plasma and RLM, absence of NADPH and UDPGA/alamethicin): stable | Reduction of relative disappearance rate in presence of SPZ (rat CYP2C): 25.8%
SMILES: COc1ccc(-c2cc(=O)c3c(O)cc(O)cc3o2)cc1 [acacetin, Acacetin]
